Laboratory results: patent US7855076B2, “Use of discoidin domain receptor 1 (DDR1) and agents that affect the DDR1/collagen pathway” (The United States of America as represented by the …, priority 2002, dated 2010)

Columns and labels:
Type in all cases: cell-based, human
DDR1 mRNA = DDR1 mRNA expression in PBMC by Northern blotting; conditions: 8 hours, TNF-α 5 ng/ml, IL-1β 10 ng/ml, IFN-γ 50 U/ml, GM-CSF 10 ng/ml, LPS 1 μg/ml, PHA 5 μg/ml
Procedure: PMN and PBMC were maintained at a density of 5×10^6 cells/ml in the complete medium in six-well tissue culture cluster (Coster, Cambridge, Mass.; 3 ml/well). Total RNA was extracted from each culture by using TRIZOL® Reagent. PolyA mRNA was purified on Oligotex columns (Qiagen, Valencia, Calif.). Northern blot analysis was performed as described (Yoshimura, J. Immunol. 150:5025, 1993), except that ULTRAhyb (Ambion) was used. A human DDR1 cDNA (757-bp) was obtained by PCR from a U-105 human glioblastoma cell line cDNA library and was ligated into the EcoRI/HindIII site of the pBluescript (Stratagene, La Jolla, Calif.). The sense primer was 5′-[…]-3′ (SEQ ID NO: 2; corresponding to residues between 68 and 87 in the nucleotide sequence of the trkE cDNA, GenBank accession number X74979) and the antisense primer was 5′-[…]-3′ (SEQ ID NO: 3; corresponding to residues between 805 and 824 in the nucleotide sequence of the trkE cDNA).
Freshly isolated PBMC expressed only a low level of DDR1 mRNA. The expression level was increased about eightfold when the cells were incubated in either RPMI 1640 or RPMI 1640 containing 10% FCS.

DDR1 protein = DDR1 protein expression in leukocytes by immunoprecipitation and Western blotting
Procedure: For Western blot analysis, cell lysates were prepared from freshly isolated PBMC, PBMC incubated overnight in RPMI 1640 containing 10% FCS, and MCF-7 cells. Cells were lysed on ice for 20 minutes in a buffer containing 50 mM Hepes, 150 mM NaCl, 1% Triton X-100, 10% glycerol, 10 mM NaF, 1 mM ethylenediamine tetraacetic acid, […], 1 mg/ml leupeptin, 1 mM phenylmethylsulfonyl fluoride, 1 mg/ml aprotinin, and 1 mg/ml pepstatin A. The lysates were spun, and the supernatants were collected. The samples were incubated with approximately 20 μl packed volume of PGS for 1 hour at 4° C. After centrifugation, supernatants were collected, mixed with 1 μg/ml normal rabbit IgG or polyclonal anti-human DDR1 IgG, and incubated for 1 hour at 4° C. PGS (20 μl) was then added and incubated for another 1 hour. IgG-coupled PGS was washed with the buffer containing 50 mM Hepes, 150 mM NaCl, 0.1% Triton X-100, 10% glycerol buffer three times, and 20 μl double-strength sample buffer (20% glycerol, 6% sodium dodecylsulfate (SDS), 10% 2-mercaptoethanol) was added. The samples were boiled for 10, minutes. Eluted proteins were analyzed on 7.5% polyacrylamide gels by SDS polyacrylamide gel electrophoresis (SDS-PAGE) and transferred electrophoretically to nitrocellulose membranes (Amersham, Arlington Heights, Ill.) at 200 mA for 2 hours by a semi-dry system. The membranes were incubated with polyclonal anti-human DDR1 or anti-phosphotyrosine IgG, followed by sheep anti-mouse IgG coupled with horseradish peroxidase (Amersham). Peroxidase activity was visualized by the Enhanced Chemiluminescence Detection System (Amersham).
There was no detectable DDR1 protein in freshly isolated PBMC. DDR1 protein was detected clearly after overnight incubation in RPMI 1640 containing 10% FCS. In order to study the kinetics of DDR1 protein expression, PBMC were incubated with or withour addition of TNF-α (5 ng/ml), or GM-CSF (10 ng/ml) for 36 hours and cell lysates were prepared. Cell lysates were subjected to immunoprecipitation with anti-DDR1 IgG or control IgG. […]

DDR1 = assay: Cell-surface DDR1 expression on PMN by flow cytometry; conditions: 24 hours
Procedure: PMN were incubated in presence of IFN-γ or GM-CSF for 24 hours and the expression of cell-surface DDR1 was measured by flow cytometry using an antibody raised against the extracellular domain of the receptor. One hundred thousand cells were suspended in 50 μl of cold PBS containing 0.1% NaN3, […] BSA and 200 μg/ml human IgG in a Falcon 2052, tube, and incubated for 10 minutes on ice. One μg of anti-DDR1 rabbit polyclonal antibody raised aginst the N-terminus of DDR1 (Transgenic, Inc., Kumamoto, Japan), or control mouse IgG was added to each tube and the cells were incubated for another 15 minutes on ice. The cells were washed with PBS, and then incubated with 1 μg of FITC-conjugated goat anti-mouse IgG for 15 minutes on ice. At the end of incubation, PI was added to each tube (100 μM). The cells were washed by PBS, and subsequently analyzed by using a FACS scan (Becton Dickinson). Dead cells, determined by the incorporation of PI, were gated out. Results were processed by using the Cellquest software (Becton Dickinson).

THP-1 cells [1] = assay: Cell migration assay, 24-well BioCoat Insert Chamber; conditions: parental, mock-infected and DDR1a-overexpressing THP-1 cells; MCP-1 10 ng/ml in outer wells, membrane only, 3 hours
Procedure: Migration of each cell type in response to medium (open column) or MCP-1 (closed column) was measured in the 24-well BioCoat Insert Chamber as described in Example 1 below. In FIG. 3A, results are shown from experiments where inner wells and outer wells were separated by a membrane only. Chambers were incubated at 37° C. for 3 hours. In FIG. 3B, results are shown from experiments where approximately 3 mm of collagen lattice was created above the membrane. Chambers were incubated at 37° C. for 8 hours. The number of migrated cells was counted in each 400× magnified field. The results were presented as migration index denoting the fold increase of cell migration over control (the number of migrated parental cells=1). Data are representative of three experiments with two independent clones overexpressing either DDR1, a or DDR1b.
The cell migration assay was performed by using the 24-well BioCoat Insert Chamber (Becton Dickinson, Bedford, Mass.). […] After a 3-hour incubation at 37° C., the numbers of cells that were adhering on the other side of the membrane and also had fallen into the outer wells were counted. […] After an 8-hour incubation at 37° C., the numbers of cells that were adhering on the other side of the membrane and also had fallen into the outer wells were counted. […]

THP-1 cells [2] = assay: Adherence of THP-1 cells to coated plates; conditions: plates coated with fibronectin; DDR1a- and DDR1b-overexpressing cells
Procedure: 5×10^5 cells/ml were cultured on either BSA (10 mg/ml)- or collagen (20 μg/ml) and BSA-coated plates for 30 (FIG. 2A) or 120 minutes (FIG. 2B) at 37° C. in a 5% CO2 humidified incubator. Normal mouse IgG or anti-β1 integrin blocking IgG was added to measure the effect of β1 integrin in the assay. The number of adherent cells in each 400× visual field was counted. The results are presented as means ±SE of four individual fields. Data are representative of three experiments with two independent clones overexpressing either DDR1a or DDR1b.
To determine the effects of collagen on the functions of DDR1a- and DDR1b-overexpressing THP-1 cells, the cells were incubated on collagen-coated plastic plates. Twenty-four-well plates were coated with 100 μl/well human collagen type I (20 μg/ml) overnight at 4° C., and then with 200 μl/well 10 mg/ml bovine serum albumin (BSA) for 1 hour at 37° C. Cells were plated at the cell density of 1×10^5 cells/ml to the coated wells and were incubated for 30 minutes at 37° C. in 5% CO2 humidified atmosphere. Nonadherent cells were removed by washing three times with PBS. Cells that remained on the coated surface were considered to be adherent, and the number of cells in each 400 field was counted. Results were presented as mean ±SE per 400 field.

PMN = assay: MCP-1 release by PMN (neutrophils), ELISA
Procedure: Human PMN and peripheral blood mononuclear cells (PBMC) were obtained from heparinized blood from human donors (10 units of heparin per ml of blood). One volume of 5% dextran (T-500 Pharmacia, Piscataway, N.J.) in phosphate buffered saline (PBS) was added to three volumes of blood in 50 ml polypropylene tubes. After a 40 minute incubation at room temperature, the leukocyte-rich plasma layer was removed and overlaid onto Lymphoprep in 50 ml tubes and the tubes were centrifuged at 800×g for 20 minutes at room temperature. PMN were separated from erythrocytes by lysis in 0.2% NaCl, washed in complete medium three times at 4° C. and resuspended in complete medium. PBMC contained in the PMN preparations obtained by this method were less than 0.5% by morphologic examination. Cell viability was higher than 98% by trypan blue staining.
A panel of cytokines was previously tested for their ability to induce MCP-1 production in PMN and it was reported that TNF-α and IFN-γ could cooperate to induce a high level of MCP-1 production (Yamashiro et al., J. Leukoc. Biol. 69:698, 2001). […] The majority of MCP-1 was released between 24 hours and 48 hours, showing a delayed kinetics of MCP-1 release. […] The effect of IFN-γ was dose-dependent.
To confirm that activation of DDR1 was responsible for the increased release of MCP-1 by PMN treated with IFN-γ and collagen, 513 anti-DDR1 Ab was used instead of collagen. The concentrations of MCP-1 were measured in the Lymphokine Testing Laboratory, Clinical Services Program, SAIC-Frederick (Frederick, Md.) with an ELISA kit (R&D Systems) specific for human MCP-1.

GM-CSF: human recombinant granulocyte macrophage-colony stimulating factor
level of DDR1 mRNA expression (DDR1 mRNA): further augmented | level of DDR1 protein expression (DDR1 protein; PBMC, TNF-α 5 ng/ml or GM-CSF 10 ng/ml, 36 hours): increased | DDR1 protein expression (DDR1 protein; monocytes): increased | level of DDR1 expression (DDR1): slightly increased

MCP-1: human recombinant monocyte chemoattractant protein-1
migration of cells (THP-1 cells [1]): increased two- to threefold

fibronectin [reference compound]
adherence or shape change (THP-1 cells [2]): no effect

B1: IFN-γ: human recombinant interferon-γ (protein, UniProt P01579 24-161, looked up)
Interferon gamma: QDPYVKEAENLKKYFNAGHSDVADNGTLFLGILKNWKEESDRKIMQSQIVSFYFKLFKNFKDDQSIQKSVETIKEDMNVKFFNSNKKKRDDFEKLTNYSVTDLNVQRKAIHELIQVMAELSPAAKTGKRKRSQMLFRG
level of DDR1 mRNA expression (DDR1 mRNA): partially inhibited | MCP-1 production (PMN; PMN on collagen-coated plates with IFN-γ): potent synergistic effect | MCP-1 release (PMN; PMN, IFN-γ alone, uncoated plates): no significant MCP-1 release | dose dependence of effect on MCP-1 release (PMN; PMN, collagen-coated plates): dose-dependent | level of DDR1 expression (DDR1): markedly increased
